Data from the NIST ThermoML archive (doi:10.1021/je401008s).

Assay: xn = mol fraction of the nth substance listed
Settings: Liquid, Taylor dispersion method, x1 = 0

O=C=O [carbon dioxide] + O
Settings | binary diffusion coefficient [m2/s]
298 K, 14000 kPa | 2.23e-09
298 K, 31600 kPa | 2.26e-09
298 K, 47700 kPa | 2.22e-09
323 K, 14200 kPa | 3.64e-09
323 K, 31800 kPa | 3.72e-09
323 K, 48600 kPa | 3.94e-09
348 K, 14900 kPa | 5.39e-09
348 K, 31800 kPa | 5.31e-09
348 K, 49300 kPa | 5.37e-09
373 K, 14900 kPa | 7.42e-09
373 K, 31000 kPa | 7.52e-09
373 K, 48500 kPa | 7.68e-09
398 K, 14300 kPa | 9.95e-09
398 K, 30900 kPa | 1.01e-08
398 K, 48000 kPa | 1.02e-08
423 K, 14300 kPa | 1.23e-08
423 K, 48000 kPa | 1.22e-08

N#N [nitrogen] + O
Settings | binary diffusion coefficient [m2/s]
298 K, 12000 kPa | 1.99e-09
298 K, 25000 kPa | 2e-09
298 K, 44600 kPa | 1.98e-09
323 K, 14600 kPa | 3.28e-09
323 K, 25100 kPa | 3.47e-09
323 K, 45000 kPa | 3.2e-09
373 K, 14800 kPa | 6.62e-09
373 K, 45000 kPa | 6.42e-09
423 K, 26900 kPa | 1.07e-08
423 K, 45900 kPa | 1.04e-08
